pKi: −log10 of the molar value.
The compounds below were run against T1, NgCA (Neisseria gonorrhoeae, UniProt Q50940) (assay: stopped-flow CO2 hydration assay). Conditions: not given.
T1 construct: gene cah; recombinant enzyme obtained in-house
T1 sequence (Q50940 27-252): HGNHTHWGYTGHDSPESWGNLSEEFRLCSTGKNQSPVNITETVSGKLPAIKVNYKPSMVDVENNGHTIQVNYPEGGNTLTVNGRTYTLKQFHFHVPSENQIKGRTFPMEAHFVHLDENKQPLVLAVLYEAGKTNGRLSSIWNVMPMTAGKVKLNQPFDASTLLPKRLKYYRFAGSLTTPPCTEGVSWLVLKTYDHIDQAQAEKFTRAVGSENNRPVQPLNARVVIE
Type: biochemical

Row | SMILES | pKi
1 | S=C(S)N1CCNCC1 [compound 28, 28] | 6.56
2 | S=C(S)N1CCCCC1 [compound 17, 17] | 6.14

Same assay, conditions: read-out: Ki (nM)^a / NgCA

Row | SMILES | Ki [nM]
3 | CC(C)CN(CC(C)C)C(=S)S [compound 22, 22] | 554
4 | CC(=O)NC1CCCN(C(=S)S)C1 (stereo not drawn) [compound 15, 15] | 451
5 | S=C(S)N1CCN(C(=S)S)CC1 [compound 29, 29] | 136
6 | O=C(O)[C@H]1CCCN(C(=S)S)C1 [compound 14, 14] | 335
7 | CN(Cc1ccccc1)C(=S)S [compound 24, 24] | 654
8 | O=C(O)C1CCCN(C(=S)S)C1 (racemic) [compound 9, 9] | 297
9 | O=C(O)C1COCCN1C(=S)S (stereo not drawn) [compound 18, 18] | 672
10 | OC1CCCN(C(=S)S)C1 (stereo not drawn) [compound 10, 10] | 367
11 | OCCCCCNC(=S)S [compound 21, 21] | 454
12 | O=C(CN1CCN(C(=S)S)CC1)NC1CCCCC1 [compound 20, 20] | 84.4
13 | OCCCNC(=S)S [compound 5, 5] | 413
14 | CC1COCCN1C(=S)S (stereo not drawn) [compound 19, 19] | 723
15 | OCCCCNC(=S)S [compound 4, 4] | 438
16 | S=C(S)NCCc1ccccc1 [compound 2, 2] | 259
17 | S=C(S)NC1CN2CCC1CC2 (racemic) [compound 12, 12] | 482
18 | S=C(S)N1CCOCC1 [compound 23, 23] | 483
19 | CC(C)(C)OC(=O)NC1CCCN(C(=S)S)C1 (stereo not drawn) [compound 6, 6] | 538
20 | S=C(S)N[C@H]1CN2CCC1CC2 [compound 16, 16] | 518
21 | CN(C)CCNC(=S)S [compound 3, 3] | 568
22 | O=C(O)C1CCCCN1C(=S)S (stereo not drawn) [compound 7, 7] | 827
23 | CCCCN(CCCC)C(=S)S [compound 25, 25] | 460
24 | N#CC1(c2ccccc2)CCN(C(=S)S)CC1 [compound 30, 30] | 365
25 | S=C(S)N[C@@H]1CN2CCC1CC2 [compound 11, 11] | 473
26 | O=C(O)C1CCN(C(=S)S)CC1 [compound 8, 8] | 514
27 | CCCN(CCC)C(=S)S [compound 26, 26] | 522
28 | CCCCN(CC)C(=S)S [compound 27, 27] | 577
29 | O=C(O)[C@@H]1CCCN(C(=S)S)C1 [compound 13, 13] | 242
30 | NS(=O)(=O)c1ccc(CCNC(=S)S)cc1 [compound 1, 1] | 83.7

Reference: publication PMC8667944 (Journal of Enzyme Inhibition and Medicinal Chemistry, 2021)
